In PMC4920673, “Nitroimidazole carboxamides as antiparasitic agents targeting Giardia lamblia, Entamoeba histolytica and Trichomonas vaginalis” (European Journal of Medicinal Chemistry, 2016):
≈ marks a conversion by molar mass, not a printed value. Read-outs that look alike come from different tables or passages of the source.

Legend:
G. lamblia WB (MtzS) = assay: ATP-bioluminescence growth/survival EC50 assay, G. lamblia WB; conditions: for EC50: Giardia duodenalis; for S.I (CC50/EC50): average cytotoxicity against HEK293 and HepG2 / G. lamblia WB activity
Experimental: (§1) Compounds were screened for antiparasitic activity using an ATP-bioluminescence based assay for cell growth and survival, [24]. […] Viable cell numbers were determined in triplicate using the CellTiter-Glo Luminescent Cell Viability Assay.

G. lamblia 713M3 (MtzR) = assay: ATP-bioluminescence growth/survival EC50 assay, G. lamblia 713M3; assay type: cell-based, Giardia lamblia
Experimental: as §1

E. histolytica HM1:IMSS = assay: ATP-bioluminescence growth/survival EC50 assay, E. histolytica; assay type: cell-based, Entamoeba histolytica; conditions: Entamoeba histolytica
Experimental: as §1

T. vaginalis F1623 = assay: ATP-bioluminescence growth/survival EC50 assay, T. vaginalis; assay type: cell-based, Trichomonas vaginalis
Experimental: as §1

[1] = system: C. difficile 630 (ATCC BAA-1382); assay: Broth microdilution MIC assay, C. difficile 630; assay type: cell-based, Clostridium difficile; conditions: Clostridioides difficile, ATCCBAA1382
Experimental: Clostridium difficile strains (630, ATCC BAA-1382 and NAP1/027, ATCC BAA-1803) were maintained as previously described. The minimum inhibition concentration (MIC) was determined according to the CLSI Methods with modifications in broth and inoculum for C. difficile, [25], [26]. Briefly, compounds and control antibiotics were serially diluted two-fold in 96-well plates (Non-binding surface, Corning). […] C. difficile bacteria from BHIS(TA) agar plates were cultured anaerobically in BHIS at 37 °C overnight. […] An antibiotic standard, a positive growth control (no compound) and a sterility control (no bacteria) were included on each 96 well plate. Plates were covered and incubated at 37 °C for 24 h. MICs for each strain were determined as the lowest concentration without visible growth. […] Median MICs are reported with a range given when the median MIC was between two tested concentrations.

[2] = system: C. difficile NAP1/027 (ATCC BAA-1803); assay: Broth microdilution MIC assay, C. difficile NAP1/027; assay type: cell-based, Clostridium difficile; conditions: Clostridioides difficile, ATCCBAA1803; strain NAP1/027
Experimental: Clostridium difficile strains (630, ATCC BAA-1382 and NAP1/027, ATCC BAA-1803) were maintained as previously described. The minimum inhibition concentration (MIC) was determined according to the CLSI Methods with modifications in broth and inoculum for C. difficile, [25], [26]. Briefly, compounds and control antibiotics were serially diluted two-fold in 96-well plates (Non-binding surface, Corning). The plates were placed in a Coy anaerobic chamber (5% H2, 10% CO2, 85% N2) overnight to reduce the medium. C. difficile bacteria from BHIS(TA) agar plates were cultured anaerobically in BHIS at 37 °C overnight. […]. Compound concentration ranged from 64 to 0.03 μg/mL. An antibiotic standard, a positive growth control (no compound) and a sterility control (no bacteria) were included on each 96 well plate. Plates were covered and incubated at 37 °C for 24 h. MICs for each strain were determined as the lowest concentration without visible growth. Variance between replicates was typically within one 2-fold dilution. Median MICs are reported with a range given when the median MIC was between two tested concentrations.

[3] = Resazurin cytotoxicity assay, HEK293; assay type: cell-based, Human; conditions: human, 24 h, highest concentration 100 μM, n = 3, read-out: CC50 HEK 293
Experimental: (§2) Human HEK293 and HepG2 cells were seeded at 3000 and 5000 cells per well in 384-well plates, respectively. Cells were cultured in Dulbecco's modified Eagle's medium with 10% FBS for 24 h at 37 °C, 5% CO2. A dilution series of compounds was added, with the highest concentration of 100 μM. […] After 24 h incubation with the compounds, 5 μM resazurin was added into each well and incubated at 37 °C for 2 h. As a negative control, 1% Triton X-100 was added into the culture media to lyse all of the cells. The fluorescence intensity was read using Polarstar Omega with excitation/emission 560/590 nm. Data were analysed with GraphPad Prism 6 software (La Jolla, California USA) to calculate CC50 values.

[4] = Resazurin cytotoxicity assay, HepG2; assay type: cell-based, Human; conditions: human, 24 h, highest concentration 100 μM, n = 3, read-out: CC50 Hep G2
Experimental: as §2

[5] = read-out: EC50 G. lamblia WB, MtzS strain WB, minimum n = 3
[6] = read-out: pEC50 ± SE G. lamblia WB, MtzS strain WB (converted)
[7] = Giardia duodenalis, read-out: EC50 G. lamblia 713M3, MtzR strain 713M3, minimum n = 3
[8] = Giardia duodenalis, read-out: pEC50 ± SE G. lamblia 713M3, MtzR strain 713M3 (converted)
[9] = read-out: EC50 E. histolytica HM1:IMSS
[10] = read-out: pEC50 ± SE E. histolytica HM1:IMSS (converted)
[11] = Trichomonas vaginalis, read-out: EC50 T. vaginalis F1623, MtzS, minimum n = 3
[12] = Trichomonas vaginalis, read-out: pEC50 ± SE T. vaginalis F1623, MtzS (converted)
[13] = strain 630, MtzS, median of n = 4, read-out: MIC C. difficile 630
[14] = read-out: EC50 G. lamblia 713M3, MtzR strain 713M3, minimum n = 3

O=C(NCc1cccc(OC(F)(F)F)c1)c1ncc([N+](=O)[O-])[nH]1 [Compound 12c, 5-nitro-N-(3-(trifluoromethoxy)benzyl)-1H-imidazole-2-carboxamide]
EC50 (G. lamblia WB (MtzS); [5]): 200 nM
EC50 (G. lamblia WB (MtzS); [6]): 200 nM
S.I (CC50/EC50) (G. lamblia WB (MtzS)): >500
EC50 (G. lamblia 713M3 (MtzR); [7]): 15000 nM
EC50 (G. lamblia 713M3 (MtzR); [8]): 14800 nM
EC50 (E. histolytica HM1:IMSS; [9]): 3600 nM
EC50 (E. histolytica HM1:IMSS; [10]): 3630 nM
EC50 (T. vaginalis F1623; [11]): 1900 nM
EC50 (T. vaginalis F1623; [12]): 1910 nM
MIC [1, 13]: 16 µg/mL (≈ 48.5 µM)
MIC [2]: 16 µg/mL (≈ 48.5 µM)
CC50 at 24 h [3]: > 100000 nM
CC50 at 24 h [4]: > 100000 nM

CC(NC(=O)c1ncc([N+](=O)[O-])[nH]1)c1ccc(F)cc1 (centres unmarked) [Compound 12d, N-(1-(4-fluorophenyl)ethyl)-5-nitro-1H-imidazole-2-carboxamide]
EC50 (G. lamblia WB (MtzS); [5]): 400 nM
EC50 (G. lamblia WB (MtzS); [6]): 398 nM
S.I (CC50/EC50) (G. lamblia WB (MtzS)): >250
EC50 (G. lamblia 713M3 (MtzR); [7]): ≤ 2500 nM
EC50 (G. lamblia 713M3 (MtzR); [8]): 1260 nM
EC50 (G. lamblia 713M3 (MtzR); [14]): 1300 nM
EC50 (E. histolytica HM1:IMSS; [9]): 1700 nM
EC50 (E. histolytica HM1:IMSS; [10]): 1700 nM
EC50 (T. vaginalis F1623; [11]): 600 nM
EC50 (T. vaginalis F1623; [12]): 589 nM
MIC [1, 13]: 8 µg/mL (≈ 28.8 µM)
MIC [2]: 8 µg/mL (≈ 28.8 µM)
CC50 at 24 h ([3]; HEK293 cells): > 100000 nM
CC50 at 24 h ([4]; HepG2 cells): > 100000 nM

Cc1ccc(CCNC(=O)c2ncc([N+](=O)[O-])[nH]2)cc1 [Compound 12e, N-(4-methylphenethyl)-5-nitro-1H-imidazole-2-carboxamide]
EC50 (G. lamblia WB (MtzS); [5]): 100 to 600 nM
EC50 (G. lamblia WB (MtzS); [6]): 100 nM
S.I (CC50/EC50) (G. lamblia WB (MtzS)): >1000
EC50 (G. lamblia 713M3 (MtzR); [7]): ≤ 2500 nM
EC50 (G. lamblia 713M3 (MtzR); [8]): 1350 nM
EC50 (G. lamblia 713M3 (MtzR); [14]): 1400 nM
EC50 (E. histolytica HM1:IMSS; [9]): 2100 nM
EC50 (E. histolytica HM1:IMSS; [10]): 2090 nM
EC50 (T. vaginalis F1623; [11]): 1200 to 2300 nM
EC50 (T. vaginalis F1623; [12]): 1200 nM
EC50 (T. vaginalis F1623; read-out: EC50 T. vaginalis F1623, MtzS, minimum n = 3): 1200 nM
MIC ([1]; 630 and NAP1/027 strains together or strain not given, read-out: MIC C. difficile): 4 to 16 µg/mL (≈ 14.6 to 58.3 µM)
MIC [1, 13]: 8 µg/mL (≈ 29.2 µM)
MIC [2]: 8 µg/mL (≈ 29.2 µM)
CC50 at 24 h ([3]; HEK293 cells): > 100000 nM
CC50 at 24 h ([4]; HepG2 cells): > 100000 nM

O=C(NCc1ccccn1)c1ncc([N+](=O)[O-])[nH]1 [Compound 12f, 5-nitro-N-(pyridin-2-ylmethyl)-1H-imidazole-2-carboxamide]
EC50 (G. lamblia WB (MtzS); [5]): 7200 nM
EC50 (G. lamblia WB (MtzS); [6]): 7240 nM
S.I (CC50/EC50) (G. lamblia WB (MtzS)): >14
EC50 (G. lamblia 713M3 (MtzR); [7]): > 20000 nM
EC50 (G. lamblia 713M3 (MtzR); [8]): > 20000 nM
EC50 (E. histolytica HM1:IMSS; [9]): 15000 nM
EC50 (E. histolytica HM1:IMSS; [10]): 15100 nM
EC50 (T. vaginalis F1623; [11]): 7100 nM
EC50 (T. vaginalis F1623; [12]): 7080 nM
MIC [1, 13]: 2 µg/mL (≈ 8.09 µM)
MIC [2]: 2 µg/mL (≈ 8.09 µM)
CC50 at 24 h ([3]; HEK293 cells): > 100000 nM
CC50 at 24 h ([4]; HepG2 cells): > 100000 nM
